In patent EP0866074A1, “NOVEL NK374186 ANALOGUES OR PHARMACOLOGICALLY ACCEPTABLE SALTS THEREOF” (NIPPON KAYAKU KABUSHIKI KAISHA, priority 1995, dated 1996):
Values after ≈ are worked out from the molar mass of the structure shown.

Experiments:
graft vs host reaction = test: Graft vs host reaction (GVH), spleen weight method; type: in vivo, mouse; details: for Spleen weight/body weight: spleen weighed 7 days after transplantation, BDF mouse; for Index: relative to Untreated = 1.00
Procedure: The spleen weight method by Fords, et al. [W.L. Ford et al., Handbook of Experimental Immunology 30, D.M. Weir, ed., Blackwell Scientific Publications, 1978, pp. 1] was followed. Spleen cells of 5×10^6, separated from a C57BL/6 mouse (8 weeks of age, male) as a donor, were transplanted peritoneally in a BDF mouse (7 weeks of age, male) as a recipient. Simultaneously, NK374186, a control agent or a solvent control (0.25 % gum arabic) was injected subcutaneously in the dorsal skin of the BDF mouse. The NK374186 and the control agent were preliminarily dissolved in 0.25 % gum arabic. Furthermore, on day 1 and day 2, the same administration was conducted, and 7 days after the transplantation, the spleen was weighed.

Human peripheral T cells = test: Blastoid transformation via OKT-3 (3H-thymidine incorporation); type: cell-based; details: 2 ng/ml OKT-3 antibody, 72-hr cultivation
Procedure: For cultivation, RPMI 1640 medium supplemented with 10 % calf fetus serum, 25 mM HEPS buffer, 100 µg/ml streptomycin […] and 100 units/ml penicillin G in a 96-well flat-bottom microplate (coaster) was used. As a mitogen, 2 ng/ml OKT-3 antibody was used.
Human peripheral T cells Were collected from blood drawn with heparin by the density-gradient centrifugation method. 200,000 cells and test compounds at individual concentrations were added to each well to a total volume of 0.2 ml, for 72-hr cultivation. Eight hours before termination of the cultivation, 37 kBq ^3H - thymidine was added to determine the incorporation thereof into the cells. The effects were evaluated on the basis of the ratio of the incorporated ^3H - thymidine in the groups with addition of the test compounds to the incorporated ^3H - thymidine in the control group (Japanese Immunology Association, Methods for Experiment Immunology, pp. 2267 - 2276).

[1] = test system: cell line A2780 derived from human ovarian cancer; test: Suppression of cancer cell proliferation (MTT method); type: cell-based
Procedure: Cells were cultured in an RPMI culture medium supplemented with 10 % calf fetus serum in the presence of 5 % CO2 at 37 °C. The cells were inoculated and cultured in a 96-well plate for one day, followed by addition of one of the pharmaceutical compounds. The cells were treated with the compounds for 3 days, and the effects were assessed by the proliferation-suppressed MTT method. The activities of the compounds on the suppression of the proliferation of Cancer cells are shown below. The cancer cells were of a cell line A2780 derived from human ovarian cancer.

- IC50 ([1]; Homo sapiens, 72 h, A2780 cells, treated for 3 days, MTT method): 33 µg/mL (≈ 44.8 µM)
SMILES: CCCCCCCCCCCCCC1OC(=O)C(COC(C)=O)NC(=O)C(C(C)OP(=O)(O)O)NC(=O)C(C(C)C)NC(=O)C(C)C(O)C1C (stereo not shown) [NK374186P]
- Spleen weight/body weight (graft vs host reaction; Dose 0.5 mg/kg subcutaneously on day 0, 1 and 2): 10.01 X10^-3
- Index (graft vs host reaction; Dose 0.5 mg/kg): 2.07
- Spleen weight/body weight (graft vs host reaction; Dose 5.0 mg/kg subcutaneously on day 0, 1 and 2): 11.45 X10^-3
- Index (graft vs host reaction; Dose 5.0 mg/kg): 2.37
- Spleen weight/body weight (graft vs host reaction; Dose 50.0 mg/kg subcutaneously on day 0, 1 and 2): 12.00 X10^-3
- Index (graft vs host reaction; Dose 50.0 mg/kg): 2.48
- effect on GVH (graft vs host reaction; result in words, summary of Table 3, ratio of spleen weight to body weight increases depending on the dose): significant GVH suppression
- ratio of the incorporated 3H-thymidine in the groups with addition of the test compounds to the control group (Human peripheral T cells; Concentration 0.03 (unit not given)): 99.6
- ratio of the incorporated 3H-thymidine in the groups with addition of the test compounds to the control group (Human peripheral T cells; Concentration 0.1 (unit not given)): 100.6
- ratio of the incorporated 3H-thymidine in the groups with addition of the test compounds to the control group (Human peripheral T cells; Concentration 0.3 (unit not given)): 102.6
- ratio of the incorporated 3H-thymidine in the groups with addition of the test compounds to the control group (Human peripheral T cells; Concentration 1.0 (unit not given)): 119.7
- ratio of the incorporated 3H-thymidine in the groups with addition of the test compounds to the control group (Human peripheral T cells; Concentration 3.0 (unit not given)): 131.4
- ratio of the incorporated 3H-thymidine in the groups with addition of the test compounds to the control group (Human peripheral T cells; Concentration 10.0 (unit not given)): 97.7
- ratio of the incorporated 3H-thymidine in the groups with addition of the test compounds to the control group (Human peripheral T cells; Concentration 30.0 (unit not given)): 69.3
- activities on the suppression of the proliferation of the cancer cells ([1]; result in words, summary of Table 1): have activities on the suppression of the proliferation of the cancer cells
